Measurements reported in patent US7262318B2, “Substituted heteroaryl- and phenylsulfamoyl compounds” (Pfizer, Inc., priority 2004, dated 2007).

System: transition cows
Test: Blood non-esterified fatty acid (NEFA) concentrations in transition cows
Type: in vivo, cow
Conditions: 0.5 mg/kg every other day from targeted day -7 pre partum and at calving, days 1–8, p<0.10, with the exception of day 5 (p=0.17)
Method: Determination of Chances in Blood Non-esterified Fatty Acid (NEFA) Concentrations and Liver Triglycerides Levels:
Compounds are administered once or several times in the transition period at dose levels predicted to be effective by comparing results of in-vitro receptor affinity tests in laboratory species and pharmacokinetic evaluations in cattle. NEFA levels are determined via standard laboratory methods, for example, using the commercial WAKO NEFA kit (Wako Chemical Co., USA, Dallas, Tex., 994-75409), and liver triglyceride content is determined using the method as described in the literature (J. K. Drackley, J. J. Veenhuizen, M. J. Richard and J. W. Young, J Dairy Sci, 1991, 74, 4254)).
All animals may be obtained from a commercial dairy farm approximately thirty days prior to anticipated calving date. […]
As soon as possible post-calving (˜30 minutes) the cow is transferred to the freestall barn for the next scheduled milking (6:00 hrs and 19:00 hrs). […] Pre and post-calving NEFA samples are analyzed using the WAKO NEFA-C test kit (#994-75409). […] Tissues are transported on ice and stored frozen at −70° F. At the conclusion of the study, samples are analysed of liver triglyceride levels using the method described by Drackley, J. K. et al. (1991, J Dairy Sci (74):4254–4264).

Compound: Cc1ccc(S(=O)(=O)Nc2ccc(-c3ccc(OC(F)(F)F)cc3)cc2)cc1C(=O)O [Example T02, 2-Methyl-5-(4′-trifluoromethoxy-biphenyl-4-ylsulfamoyl)-benzoic acid]
- serum NEFA levels as compared to control: significantly lower
